Experimental findings from patent US12161756B2, “Pharmaceutical-loaded nanocomposite for treating pulmonary infections” (Imam Abdulrahman Bin Faisal University, priority 2021, dated 2024) are described below.

For this series, the system named is HFF normal cells (Human foreskin fibroblasts). The procedure:
Toxicity studies were carried out to evaluate any toxic effect of developed nanoformulations. Cells were treated for 48 h with the following conditions for Zinc-containing nanocomposites: ZnFe2O4/Halloysite, Halloysite, Dexamethasone (Dex), ZnFe2O4/Halloysite/Dex, ZnFe2O4/Halloysite/Dex/PEG, and PEG. Similar protocol was used for nickel-containing nanocomposites. Treatment concentrations were as follows: 0.0375, 0.075, 0.15, and 0.3 mg/mL. In addition, cells were treated with Dex at concentrations to reflect that loaded in the nanocomposite as follows: 0.00181, 0.00362, 0.00725, and 0.01449 mg/mL. […] To choose the optimal dose, cells were exposed to specific doses at different time points. Cells were treated with dose 2 (0.075 mg/mL, see FIG. 9A), dose 3 (0.15 mg/mL, see FIG. 9B), or dose 4 (0.3 mg/mL, see FIG. 9C) for 24, 48, and 72 h.

For `C[C@@H]1C[C@H]2[C@@H]3CCC4=CC(=O)C=C[C@]4(C)[C@@]3(F)[C@@H](O)C[C@]2(C)[C@@]1(O)C(=O)CO` [Dexamethasone, dexamethasone], the toxicity to cells result is recorded as “induce toxicity”. Also, the “dexamethasone dose found to be less toxic / usable dose” value (human, 48 h) is given as “up to 0.00362 mg/mL”.
